Assay results reported in patent US20240041042A1, “1-(PYRIDYL)-5-AZINYLPYRAZOLE DERIVATIVES, AND THEIR USE FOR CONTROL OF UNDESIRED PLANT GROWTH” (Bayer Aktiengesellschaft, priority 2020, published 2024).
Where two headings read alike, the source gives them in different places.

Assays:
Type in all cases: in vivo
[1] = tested on: Abutilon theophrasti (ABUTH); assay: Post-emergence herbicidal action against ABUTH; conditions: visual rating about 3 weeks after treatment vs untreated controls (100% = plants have died, 0% = like control plants)
Method in brief: (§1)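 Greenhouse plants sprayed at the one-leaf stage, 2–3 weeks after sowing, with WP or EC formulations plus 0.5% additive at 600 l/ha water. Activity rated visually after about 3 weeks versus untreated controls (100% = dead, 0% = like control), at 320 g/ha or lower.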

[2] = tested on: Alopecurus myosuroides (ALOMY); assay: Post-emergence herbicidal action against ALOMY; conditions: visual rating about 3 weeks after treatment vs untreated controls (100% = plants have died, 0% = like control plants)
Method in brief: as §1

[3] = tested on: Avena fatua (AVEFA); assay: Post-emergence herbicidal action against AVEFA; conditions: visual rating about 3 weeks after treatment
Method in brief: as §1

[4] = tested on: Digitaria sanguinalis (DIGSA); assay: Post-emergence herbicidal action against DIGSA; conditions: visual rating about 3 weeks after treatment
Method in brief: as §1

[5] = tested on: Echinochloa crus-galli (ECHCG); assay: Post-emergence herbicidal action against ECHCG
Method in brief: as §1

[6] = tested on: Lolium rigidum (LOLRI); assay: Post-emergence herbicidal action against LOLRI
Method in brief: as §1

[7] = tested on: Matricaria inodora (MATIN); assay: Post-emergence herbicidal action against MATIN
Method in brief: as §1

[8] = tested on: Pharbitis purpurea (PHBPU); assay: Post-emergence herbicidal action against PHBPU
Method in brief: as §1

[9] = tested on: Polygonum convolvulus (POLCO); assay: Post-emergence herbicidal action against POLCO
Method in brief: as §1

[10] = tested on: Setaria viridis (SETVI); assay: Post-emergence herbicidal action against SETVI
Method in brief: as §1

[11] = tested on: Verconica persica (VERPE); assay: Post-emergence herbicidal action against VERPE
Method in brief: as §1

[12] = tested on: Viola tricolor (VIOTR); assay: Post-emergence herbicidal action against VIOTR
Method in brief: as §1

[13] = tested on: Oryza sativa (ORYSA); conditions: crop plant compatibility
Method in brief: (§2)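 Greenhouse crops in sandy loam sprayed post-emergence at the one-leaf stage, 2–3 weeks after sowing, with WP or EC formulations in water plus 0.5% additive at 600 l/ha. Damage rated visually about 3 weeks later versus untreated controls (0% = like control, 100% = dead); suffixes a–c denote different doses.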

[14] = tested on: Zea mays (ZEAMX); conditions: for Post-emergence action against ZEAMX in % (crop plant compatibility): 20 g/ha, effect in comparison to untreated controls; for Post-emergence action against ZEAMX in %: crop plant compatibility, 80 g/ha, effect vs untreated controls
Method in brief: as §2

[15] = tested on: Amaranthus retroflexus (AMARE); assay: Post-emergence herbicidal action against AMARE
Method in brief: as §1

[16] = 20 g/ha, effect vs untreated controls
[17] = 80 g/ha, effect in comparison to untreated controls
[18] = 320 g/ha, visual rating about 3 weeks after treatment
[19] = 80 g/ha, visual rating about 3 weeks after treatment vs untreated controls (100% = plants have died, 0% = like control plants)

Row | SMILES | Post-emergence action against ABUTH in % ([1]; 320 g/ha) | Post-emergence action against ALOMY in % ([2]; 320 g/ha) | Post-emergence action against AVEFA in % ([3]; 320 g/ha) | Post-emergence action against DIGSA in % ([4]; 320 g/ha) | Post-emergence action against ECHCG in % ([5]; dosage 320 g/ha) | Post-emergence action against LOLRI in % ([6]; dosage 80 g/ha) | Post-emergence action against LOLRI in % ([6]; dosage 320 g/ha) | Post-emergence action against MATIN in % ([7]; dosage 320 g/ha) | Post-emergence action against PHBPU in % ([8]; dosage 80 g/ha) | Post-emergence action against PHBPU in % ([8]; dosage 320 g/ha) | Post-emergence action against POLCO in % ([9]; dosage 320 g/ha) | Post-emergence action against SETVI in % ([10]; dosage 80 g/ha) | Post-emergence action against SETVI in % ([10]; dosage 320 g/ha) | Post-emergence action against VERPE in % ([11]; 320 g/ha, VERPE) | Post-emergence action against VERPE in % ([11]; dosage 80 g/ha) | Post-emergence action against VIOTR in % ([12]; 80 g/ha) | Post-emergence action against VIOTR in % ([12]; 320 g/ha) | Post-emergence action against ORYSA in % [13, 16] | Post-emergence action against ABUTH in % ([1]; 80 g/ha) | Post-emergence action against AMARE in % [15, 18] | also measured
1 | COC(=O)C(C)COC(=O)C(C)Oc1nn(-c2ccccn2)c(-c2ccc(F)nc2)c1Br (centres unmarked) [Example I-285] | 80% | 90% | 80% | 90% | 80% | 80% | 90% | 80% | 80% | 90% | 80% | 90% | 90% | 80% | 80% | 80% | 80% | 10% |  |  | Post-emergence action against ALOMY in % ([2]; 80 g/ha): 90%; Post-emergence action against DIGSA in % ([4]; 80 g/ha): 80%; Post-emergence action against ORYSA in % [13, 17]: 10%; Post-emergence action against ZEAMX in % (crop plant compatibility) [14]: 10%
2 | CC(C)=NOC(=O)COc1nn(-c2ncccc2F)c(-c2ccc(F)nc2)c1C1CC1 [Example I-366] | 90% | 90% | 90% | 90% | 90% | 90% | 90% | 80% | 80% | 80% | 80% | 90% | 90% | 90% | 80% | 80% | 90% | 0% | 80% | 80% | Post-emergence action against AVEFA in % ([3]; 80 g/ha): 90%; Post-emergence action against DIGSA in % ([4]; 80 g/ha): 80%; Post-emergence action against ECHCG in % ([5]; dosage 80 g/ha): 90%; Post-emergence action against ORYSA in % [13, 17]: 20%; Post-emergence action against ZEAMX in % (crop plant compatibility) [14]: 10%
3 | O=C(COc1nn(-c2ncccc2F)c(-c2ccc(F)nc2)c1C1CC1)OCC(F)(F)F [Example I-326] | 80% | 90% | 90% | 90% | 90% | 90% | 90% | 80% | 80% | 90% | 90% | 90% | 90% | 90% | 90% | 90% | 90% | 0% | 80% | 90% | Post-emergence action against ALOMY in % ([2]; 80 g/ha): 90%; Post-emergence action against AMARE in % [15, 19]: 90%; Post-emergence action against AVEFA in % ([3]; 80 g/ha): 90%; Post-emergence action against DIGSA in % ([4]; 80 g/ha): 80%; Post-emergence action against ECHCG in % ([5]; dosage 80 g/ha): 90%; Post-emergence action against POLCO in % ([9]; dosage 80 g/ha): 80%; Post-emergence action against ZEAMX in % (crop plant compatibility) [14]: 0%; Post-emergence action against ZEAMX in % [14]: 0%
4 | CCCOC(=O)COc1nn(-c2ncccc2F)c(-c2ccc(F)nc2)c1C1CC1 [Example I-344] | 80% | 90% | 90% | 90% | 90% | 90% | 90% | 80% | 90% | 90% | 90% | 90% | 90% | 90% | 90% | 80% | 80% | 0% | 80% | 90% | Post-emergence action against ALOMY in % ([2]; 80 g/ha): 90%; Post-emergence action against AMARE in % [15, 19]: 90%; Post-emergence action against AVEFA in % ([3]; 80 g/ha): 90%; Post-emergence action against DIGSA in % ([4]; 80 g/ha): 90%; Post-emergence action against ECHCG in % ([5]; dosage 80 g/ha): 90%; Post-emergence action against MATIN in % ([7]; dosage 80 g/ha): 80%; Post-emergence action against POLCO in % ([9]; dosage 80 g/ha): 80%; Post-emergence action against ORYSA in % [13, 17]: 0%; Post-emergence action against ZEAMX in % (crop plant compatibility) [14]: 0%; Post-emergence action against ZEAMX in % [14]: 0%
5 | COCCOC(=O)COc1nn(-c2ncccc2F)c(-c2ccc(F)nc2)c1C1CC1 [Example I-314] | 80% | 90% | 90% | 90% | 90% | 90% | 90% | 80% | 90% | 90% | 90% | 90% | 90% | 90% | 90% | 90% | 90% | 0% | 80% | 90% | Post-emergence action against ALOMY in % ([2]; 80 g/ha): 90%; Post-emergence action against AMARE in % [15, 19]: 90%; Post-emergence action against AVEFA in % ([3]; 80 g/ha): 90%; Post-emergence action against DIGSA in % ([4]; 80 g/ha): 90%; Post-emergence action against ECHCG in % ([5]; dosage 80 g/ha): 90%; Post-emergence action against ORYSA in % [13, 17]: 20%; Post-emergence action against ZEAMX in % (crop plant compatibility) [14]: 0%; Post-emergence action against ZEAMX in % [14]: 10%
6 | COC(=O)[C@@H](C)Oc1nn(-c2ncccc2F)c(-c2cncc(F)c2)c1Cl [Example I-146] | 90% | 90% | 90% | 90% | 90% |  | 90% | 90% | 90% | 90% | 90% | 90% | 90% | 90% | 90% | 90% | 90% | 0% | 80% | 90% | Post-emergence action against AMARE in % [15, 19]: 90%; Post-emergence action against AVEFA in % ([3]; 80 g/ha): 90%; Post-emergence action against ECHCG in % ([5]; dosage 80 g/ha): 90%; Post-emergence action against MATIN in % ([7]; dosage 80 g/ha): 90%; Post-emergence action against POLCO in % ([9]; dosage 80 g/ha): 80%
7 | COC(=O)[C@@H](C)Oc1nn(-c2ncccc2F)c(-c2cncc(F)c2)c1C1CC1 [Example I-144] | 90% | 90% | 90% | 90% | 90% | 90% | 90% | 90% | 90% | 90% | 80% | 90% | 90% | 90% | 90% | 90% | 90% | 0% | 80% | 90% | Post-emergence action against ALOMY in % ([2]; 80 g/ha): 90%; Post-emergence action against AMARE in % [15, 19]: 90%; Post-emergence action against AVEFA in % ([3]; 80 g/ha): 90%; Post-emergence action against DIGSA in % ([4]; 80 g/ha): 90%; Post-emergence action against ECHCG in % ([5]; dosage 80 g/ha): 90%; Post-emergence action against MATIN in % ([7]; dosage 80 g/ha): 90%; Post-emergence action against POLCO in % ([9]; dosage 80 g/ha): 80%
8 | COC(=O)[C@H](C)COC(=O)[C@@H](C)Oc1nn(-c2ccccn2)c(-c2ccc(F)nc2)c1Cl [Example I-275] | 80% | 100% | 90% | 90% | 90% | 90% | 90% | 90% | 90% | 100% | 80% | 90% | 90% | 90% | 90% | 90% | 90% |  | 80% | 80% | Post-emergence action against ALOMY in % ([2]; 80 g/ha): 80%; Post-emergence action against AVEFA in % ([3]; 80 g/ha): 90%; Post-emergence action against MATIN in % ([7]; dosage 80 g/ha): 80%; Post-emergence action against POLCO in % ([9]; dosage 80 g/ha): 80%; Post-emergence action against ZEAMX in % (crop plant compatibility) [14]: 0%; Post-emergence action against ZEAMX in % [14]: 20%
